From publication PMC3917258, “6-Bromoisatin Found in Muricid Mollusc Extracts Inhibits Colon Cancer Cell Proliferation and Induces Apoptosis, Preventing Early Stage Tumor Formation in a Colorectal Cancer Rodent Model” (Marine Drugs, 2013)
Where “and” joins values, the source holds several entries; their conditions need not be identical. Identical values can stand only once.

How the values were obtained:
Blood hematology = type: in vivo, mice (C57BL/6J)
Experimental: To detect the early stage prevention of colon cancer, an established AARGC rodent model with injection of the carcinogen AOM was used. Synthetic 6-bromoisatin at 3 different dosages (0.025, 0.05 and 0.1 mg/g body weight) was administered to mice by daily oral gavage in 100 µL sunflower oil, containing 0.02% Vitamin E, for two weeks. The control group was gavaged with sunflower oil (containing 0.02% Vitamin E) only. After two weeks, all mice were injected with a single intraperitoneal (i.p.) injection of AOM at a dosage of 10 mg/kg bodyweight and euthanized 6 h later by cervical dislocation under anesthesia. […] The distal colon of each mouse was excised and fixed in 10% buffered formalin for 24 h and then embedded in paraffin for histological and immunohistological examination.
Blood samples (0.5–1 mL) were obtained from the mice under anesthesia by cardiac puncture at time of kill and transferred to Gribbles Veterinary Pathology laboratory, Adelaide within heparinized vacutainer tubes then centrifuged to separate into the cell layer for hematology analysis (Abbott Cell Dyn 3700 analyzer, North Ryde, NSW, Australia) and plasma for biochemistry analysis (Siemens Advia 1800 chemistry analyzer, Erlangen, Germany). The plasma levels of the liver enzymes AST, ALT and ALP were assessed as indicators of hepatotoxicity.

[1] = General observations for signs of illness; type: in vivo, mice (C57BL/6J); details: mice, 0.025-0.1 mg/g daily oral gavage two weeks
Experimental: This experiment was conducted under Flinders animal welfare approval number 751-10. A total of 38 wild-type (C57BL/6J) male mice aged 10 weeks were obtained from the Animal Resource Centre, Perth, Western Australia. Mice were divided randomly into 4 groups (ten mice in each treatment group and 8 mice in the sunflower oil only control group) and housed in 8 cages (four to five mice per cage). The mice were given water and food (rodent chow) ad libitum and maintained at the temperature of 22 ± 2 °C and humidity of 80% ± 10% with a 12 h light/dark cycle. Mice were weighed every five days and on the day of kill, and monitored daily for signs of illness, such as weight and hair loss, diarrhea, constipation, rectal bleeding, labored breathing, lethargy, eye and nose discharge.

HT29 cells = assay: MTT cell viability assay; type: cell-based, human; details: for reduction of cell viability: relative to DMSO control, 12 h
Experimental: All media and chemicals were purchased from Sigma Aldrich (Castle Hill, NSW, Australia) unless otherwise stated. HT29 human colorectal cancer cell line (passage no. 36-42) were cultured (37 °C and 5% CO2) in Dulbecco’s Modified Eagle’s Medium (DMEM) supplemented with 4500 mg/L L-glutamine, 10% FBS, 100 U/mL Penicillin/Streptomycin and 1% Non-essential Amino Acid (100×), until the cells reached 70% confluence. The cells were harvested from flasks by trypsinization (1× Trypsin-EDTA) and were seeded (20,000 cells/well) into clear 96-well plates (Costar®, Mt Martha, VIC, Australia) for measurement of cell viability and white (opaque) 96-well plates (Interpath, Heidelberg West, VIC, Australia) for determination of apoptosis and necrosis. HT29 cells were incubated for 48 h, then the media was removed and the cells were washed with PBS. […] 1% DMSO controls were also included on each plate. Staurosporine (5 µM) for apoptosis and lysis solution (5 μL/well, Promega, Alexandria, NSW, Australia) for necrosis were added to the white plates in triplicate, as positive controls. All cells were treated for 12 h. Morphological changes in the cells were observed on an Olympus CK2 inverted optical microscope (×400 magnification) 12 h after treatment. To measure cell viability, the MTT assay was applied, which measures the reduction of MTT tetrazolium salt to formazan, as previously described. To measure necrosis and apoptosis, CytoTox-ONE Homogeneous Membrane Integrity Assay reagent (Promega) and Caspase-Glo 3/7® assay (Promega) were applied respectively, according to our previous study. These assays were all repeated in triplicate on three separate occasions (n = 3).

[2] = 0.025 mg/g, n = 6, 6 h after AOM 10 mg/kg
[3] = 0.05 mg/g, n = 6, 6 h after AOM 10 mg/kg
[4] = 0.1 mg/g, n = 8, 6 h after AOM 10 mg/kg

O=C1Nc2cc(Br)ccc2C1=O [6-bromoisatin, 6-Bromoindole-2,3-dione]
Hct (Hematocrit) (Blood hematology; [2]): 0.4 ± 0.01 L/L
Hemoglobin (Blood hematology; [2]): 139.7 ± 5.1 g/L
Lymphocytes (Blood hematology; [2]): 3.3 ± 1.1 ×10^9/L
MCH (Mean Corpuscular Hemoglobin) (Blood hematology; [2]): 15.0 ± 0.0 pg
MCHC (Mean Corpuscular Hemoglobin Concentration) (Blood hematology; [2]): 322.7 ± 1.5 g/L
MCV (Mean Corpuscular Volume) (Blood hematology; [2]): 46.5 ± 0.8 fL
Monocytes (Blood hematology; [2]): 0.2 ± 0.3 ×10^9/L
Neutrophils (Blood hematology; [2]): 1.6 ± 0.8 ×10^9/L
Red cell count (Blood hematology; [2]): 9.3 ± 0.4 ×10^12/L
White cell count (Blood hematology; [2]): 5.2 ± 1.8 ×10^9/L
Hct (Hematocrit) (Blood hematology; [3]): 0.4 ± 0.01 L/L
Hemoglobin (Blood hematology; [3]): 135.0 ± 3.5 g/L
Lymphocytes (Blood hematology; [3]): 3.4 ± 0.8 ×10^9/L
MCH (Mean Corpuscular Hemoglobin) (Blood hematology; [3]): 15.0 ± 0.0 pg
MCHC (Mean Corpuscular Hemoglobin Concentration) (Blood hematology; [3]): 319.0 ± 2.8 g/L
MCV (Mean Corpuscular Volume) (Blood hematology; [3]): 46.7 ± 1.2 fL
Monocytes (Blood hematology; [3]): 0.2 ± 0.1 ×10^9/L
Neutrophils (Blood hematology; [3]): 2.2 ± 1.3 ×10^9/L
Red cell count (Blood hematology; [3]): 9.1 ± 0.4 ×10^12/L
White cell count (Blood hematology; [3]): 5.8 ± 1.5 ×10^9/L
Hct (Hematocrit) (Blood hematology; [4]): 0.4 ± 0.02 L/L
Hemoglobin (Blood hematology; [4]): 138.4 ± 5.7 g/L
Lymphocytes (Blood hematology; [4]): 2.3 ± 0.9 ×10^9/L
MCH (Mean Corpuscular Hemoglobin) (Blood hematology; [4]): 15.0 ± 0.0 pg
MCHC (Mean Corpuscular Hemoglobin Concentration) (Blood hematology; [4]): 319.8 ± 3.0 g/L
MCV (Mean Corpuscular Volume) (Blood hematology; [4]): 46.4 ± 0.7 fL
Monocytes (Blood hematology; [4]): 0.1 ± 0.1 ×10^9/L
Neutrophils (Blood hematology; [4]): 0.8 ± 0.7 ×10^9/L
Red cell count (Blood hematology; [4]): 9.4 ± 0.5 ×10^12/L
White cell count (Blood hematology; [4]): 3.2 ± 1.1 ×10^9/L
diarrhea / stool consistency [1]: no diarrhea or change in stool consistency
signs of illness [1]: did not show any signs of illness
reduction of cell viability (HT29 cells; 0.01 mg/mL): no significant reduction
reduction of cell viability (HT29 cells; 0.025 mg/mL): 26%
reduction of cell viability (HT29 cells; 0.05 mg/mL): 53%
reduction of cell viability (HT29 cells; 1 mg/mL): 64%
IC50 (HT29 cells; Homo sapiens, HT-29, HT29 cells, MTT, 12 h treatment, 1% DMSO): 223 µM and 50 µg/mL
